Test results: patent publication US7635686B2, “Therapeutically useful triethyleneglycol cholesteryl oligonucleotides” (Bioniche Life Sciences, Inc., priority 2001, dated 2009)

Experiments:
[1] = test system: HIG-82 cells; test: HIG-82 synovial cell proliferation (MTT reduction); type: cell-based, rabbit; details: 53 μM, 48 hours
Description: Adherent HIG-82 cells, a synovial cell line, were incubated at 10×10^5 cells/ml for 48 hours with 53 μM (final concentration) of SEQ ID NO:2, SEQ ID NO:3, SEQ ID NO:4, SEQ ID NO:6, SEQ ID NO:7, or SEQ ID NO:8. Cellular proliferation was measured using dimethylthiazol-diphenyl-tetrazolium (MTT) reduction (Mosman et al., J. Immunol. Methods 65:55, 1983). MTT was measured at a wavelength of 570 nm using a multiple spectrophotometer reader (ELX800, Bio-TEK, Instruments Inc., Winooski, Vt.). The percentage of inhibition, calculated as […]

[2] = test system: HIG-82 cells; test: Apoptosis by nuclear DNA fragmentation (TUNEL, flow cytometry) in HIG-82 cells; type: cell-based, rabbit; details: 53 μM; for Percentage of cells containing DNA fragmentation (cells in apoptosis) in HIG-82 cells: 48 hours, TUNEL; for Induction of apoptosis in HIG-82 cells (in words): fragmented nuclear DNA
Description: Adherent HIG-82 cells were incubated at 1.0×10^5 cells/ml for 48 hours with 53 μM final concentration of SEQ ID NO:1, SEQ ID NO:2, SEQ ID NO:5 or SEQ ID NO:6. Since phosphatidylserine/annexin V detection of apoptosis was not reliable after adherent cell harvesting techniques, such as trypsinization (van Engeland, Cytometry, 31:1, 1998), apoptosis in HIG-82 cells was evaluated using flow cytometry by the detection of fragmented DNA by terminal deoxynucleotidyl transferase enzyme-mediated bromodeoxyuridine triphosphate-biotin nick end-labeling (TUNEL) using a commercial assay (APO-BRDU™ kit; BD Pharmingen). The percentage of cells containing nuclear DNA fragmentation was determined. After 24 hours, untreated HIG-82 cells were essentially negative for nuclear DNA fragmentation.

[3] = test system: MEG-01 cells; test: Apoptosis by phosphatidylserine redistribution (FITC-annexin V flow cytometry) in MEG-01 cells; type: cell-based, human; details: 48 hours; for Percentage of positive cells for phosphatidylserine (cells in apoptosis) in MEG-01 cells: untreated cells 12%; for Induction of apoptosis in MEG-01 cells (in words): translocation of phosphatidylserine, up to 53.0 μM
Description: Redistribution of plasma membrane phosphatidylserine is a characteristic of cells undergoing apoptosis (Martin et al., J. Exp. Med., 182:1545, 1995). The redistribution of phosphatidylserine in the plasma membrane during apoptosis was measured by flow cytometry using FITC (fluorescein isothiocyanate)-conjugated annexin V (BD Pharmingen, San Diego, Calif.). MEG-01 cells, a human chronic myelogeneous leukemia cell line positive for the Philadelphia chromosome and having a BCR-ABL gene fusion, were incubated at 2.5×10^5 cells/ml for 48 hours with 5.3, 26.5 and 53.0 μM final concentrations of SEQ ID NO:1, SEQ ID NO:2, SEQ ID NO:5, SEQ ID NO:6 and cholesteryl-TEG phosphoramidite molecule. The percentage of cells in apoptosis after exposure to the SEQ ID NOs:1, 2, 5, 6, or cholesteryl-TEG phosphoramidite treatment is reported in Table 2. The percentage of apoptosis in untreated MEG-01 cells was 12%.

[4] = test system: MEG-01 cells; test: Cell cycle stage in MEG-01 cells (propidium iodide flow cytometry); type: cell-based, human; details: 24 h
Description: To determine a cell cycle stage, various assays and procedures known to one skilled in the art may be employed. One such procedure uses a CYCLETEST™ PLUS DNA commercial kit (Becton Dickinson, Franklin Lakes, N.J.). Briefly, nuclei from cells are obtained by dissolving the cell membrane in a nonionic detergent, eliminating the cell cytoskeleton and nuclear proteins with trypsin, digesting the cellular RNA with RNase, and stabilizing the nuclear chromatin with spermine. Propidium iodide is added to the cell nuclei and their fluorescence was analyzed in a flow cytometer equipped with electronic doublet discrimination capability (FACSCalibur, Becton Dickinson, Franklin Lakes, N.J.). Accumulation of cells in G0/G1, early S (SE), mid S (SM), late S (SL) or G2/M phases of the cell cycle may be analyzed using MODFIT LT software (Verity Software House Inc., Topsham, Mass.), or other appropriate software.
Exponentially growing MEG-01 cells (2×10^5 cells/ml) were incubated for 24 h with 0 μM (control), 53 μM of SEQ ID NO:2 or 53 μM of SEQ ID NO:6. The cells were collected, centrifuged, and cell cycle stage was determined.

[5] = test system: Hs578T cells; test: Release of nuclear mitotic apparatus protein (NuMA) by Hs578T cells (ELISA); type: cell-based, human; details: Hs578T monolayer, 53 μM, 72 hrs; percentage increase
Description: Hs578T cells were cultured as monolayer in negative control conditions or with 53 μM final concentraition of SEQ ID NO:2, 53 μM of SEQ ID NO:6 for 72 hrs. The release of nuclear mitotic apparatus protein (NuMA) was used as a measure of apoptosis. NuMA was determined using a commercial ELISA kit following the manufacturer's protocol. Results are shown in Table 11 and are expressed as the percentage increase in NuMA release compared to control conditions based on optical density measurements.

[6] = test system: MCF-7 cells; test: MATRIGEL outgrowth after 1 hr pre-incubation, MCF-7; type: cell-based, human; details: MCF-7, 53 μM pre-incubation 1 hr, 3 days on MATRIGEL, FIG. 1
Description: (§1) Various in vitro and in vivo assays may be used to evaluate the influence of the extracellular microenvironment on behavior of normal cells and tumor cells. Such assays may employ MATRIGEL® (Becton Dickinson, Franklin Lakes, N.J.), which is a solubilized basement membrane preparation extracted from the Engelbreth-Holm-Swarm murine sarcoma.
(§2) MCF-7, MDA-MB-231 (MDA-231), Hs578T and Mpanc-96 cells were cultured separately in regular culture medium, trypsinized, and counted. 100×10^3 of MDA-231 cells, 100×10^3 of Hs578T cells, 150×10^3 of MCF-7 cells and 150×10^3 of Mpanc-96 cells were separately pre-incubated for 1 hr at 37° C. in a final concentration of 53 μM of SEQ ID NO:1, 53 μM of SEQ ID NO:5 or RCM, and plated on top of MATRIGEL®-coated plates (MATRIGEL® Basement membrane matrix coated cellware 24-well plate,) for 3 days. Plates were fixed with 10% formalin. Digital photographs of the cells in the 24-well plates were taken using a Nikon Coolpix 990 digital camera (Nikon Corporation, Tokyo, Japan) connected to a Nikon inverted microscope model TMS.

[7] = test system: Hs578T cells; test: MATRIGEL outgrowth after 1 hr pre-incubation, Hs578T; type: cell-based, human; details: 53 μM pre-incubation 1 hr, 3 days on MATRIGEL, FIG. 1 and FIG. 2
Description: as §1, §2
(§3) MDA-MB-231 (MDA-231) and Hs578T were cultured in regular culture medium, trypsinized and counted. 100×10^3 of MDA-MB-231 cells or 100×10^3 of Hs578T cells, were separately pre-incubated for 1 hr at 37° C. in a final concentration of 53 μM of SEQ ID NO:4, 53 μM of SEQ ID NO:8 or RCM and plated on MATRIGEL®-coated plates for 3 days. Plates were fixed with 10% formalin. Digital photographs of the cells in the 24-well plates were taken using a Nikon Coolpix 990 digital camera (Nikon Corporation, Tokyo, Japan) connected to a Nikon inverted microscope model TMS.

[8] = test system: MDA-MB-231 (MDA-231) cells; test: MATRIGEL outgrowth after 1 hr pre-incubation, MDA-231; type: cell-based, human; details: MDA-231, 53 μM pre-incubation 1 hr, 3 days on MATRIGEL, FIG. 1 and FIG. 2
Description: as §1, §2, §3

[9] = test system: MDA-MB-231 cells; test: Release of nuclear mitotic apparatus protein (NuMA) by MDA-MB-231 cells (ELISA); type: cell-based, human; details: MDA-MB-231 monolayers, 53 μM, 72 hrs; percentage increase
Description: MDA-MB-231 cells were cultured as monolayers in respective control media, with 53 μM final concentration of SEQ ID NO:1 or 53 μM final concentration of SEQ ID NO:5 for 72 hrs. The release of nuclear mitotic apparatus protein (NuMA) was used as a measure of apoptosis. NuMA was determined using a commercial (ELISA kit (Oncogene, Cambridge, Mass.) following the manufacturer's protocol. Results are shown in Table 10 and are expressed as the percentage increase in NuMA release compared to respective controls based on optical density measurements.

[10] = test system: Mpanc-96 cells; test: MATRIGEL outgrowth after 1 hr pre-incubation, Mpanc-96; type: cell-based, human; details: Mpanc-96, 53 μM pre-incubation 1 hr, 3 days on MATRIGEL, FIG. 1
Description: as §1, §2

Substance | Inhibition of proliferation of synovial HIG-82 cells (in words) [1] | Inhibition of HIG-82 cell proliferation, inhibition (%) ([1]; MTT) | Percentage of cells containing DNA fragmentation (cells in apoptosis) in HIG-82 cells [2] [%] | Induction of apoptosis in HIG-82 cells (in words) [2] | Percentage of positive cells for phosphatidylserine (cells in apoptosis) in MEG-01 cells ([3]; 5.3 μM) [%] | Percentage of positive cells for phosphatidylserine (cells in apoptosis) in MEG-01 cells ([3]; 26.5 μM) [%] | Percentage of positive cells for phosphatidylserine (cells in apoptosis) in MEG-01 cells ([3]; 53.0 μM) [%] | Induction of apoptosis in MEG-01 cells (in words) [3] | Induction of cell cycle arrest in MEG-01 cells (in words) ([4]; 53 μM) | % of cells in phase SM ([4]; MEG-01, 53 μM, untreated 10.8) [%] | % of cells in phase SL + G2/M ([4]; MEG-01, 53 μM, untreated 17.8) [%] | % of cells in phase G0/G1 + SE ([4]; MEG-01, 53 μM, untreated 71.4) [%] | NuMA release compared to control (%) [5] | Formation of 3-dimensional structures / cell morphology on MATRIGEL [6] | Formation of 3-dimensional structures / cell morphology on MATRIGEL [7] | Formation of 3-dimensional structures / cell morphology on MATRIGEL [8] | NuMA release compared to controls (%) [9] | Formation of 3-dimensional structures / cell morphology on MATRIGEL [10]
5′ OH-GGGAGG-OH 3′ (listed as DNA, chemistry not fully specified) [SEQ ID NO:2] | did not inhibit proliferation | 6 | 1 | inactive | 12 | 12 | 12 | inactive | inactive | 11.6 | 19.8 | 68.6 | +8% | – | – | – | – | –
5′ OH-GGGTGG-OH 3′ [SEQ ID NO:1] | – | – | 1 | inactive | 12 | 12 | 12 | inactive | – | – | – | – | – | did not change cell morphology | did not change cell morphology | did not change cell morphology | +5% | did not change cell morphology
